Measured values as given in ChEMBL document CHEMBL1201862, “PubChem BioAssay data set” (2004).
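Compound exposure: 48 hours, 5 concentrations, 96-well plates. At the GI50, growth is halved.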 Activity calls are given as the source filed them. No stated cut-off is given here; in the data, active = GI50 up to about 1.1 µM and inactive = higher.

Key:
Assay in all cases: DTP human tumour cell line panel, 48 h
SF-268 = test system: SF-268
SF-295 = test system: SF-295
ACHN = test system: ACHN
RPMI-8226 = test system: RPMI-8226
COLO 205 = test system: COLO 205
OVCAR-8 = test system: OVCAR-8
HOP-92 = test system: HOP-92
SK-MEL-5 = test system: SK-MEL-5
UACC-62 = test system: UACC-62
SNB-19 = test system: SNB-19
OVCAR-5 = test system: OVCAR-5
OVCAR-4 = test system: OVCAR-4
SW-620 = test system: SW-620
MOLT-4 = test system: MOLT-4
IGROV-1 = test system: IGROV-1
HCT-116 = test system: HCT-116
EKVX = test system: EKVX
UACC-257 = test system: UACC-257
CAKI-1 = test system: CAKI-1
KM12 = test system: KM12

Compound	GI50 (SF-268)	GI50 (SF-295)	GI50 (ACHN)	GI50 (RPMI-8226)	GI50 (COLO 205)	GI50 (OVCAR-8)	GI50 (HOP-92)	GI50 (SK-MEL-5)	GI50 (UACC-62)	GI50 (SNB-19)	GI50 (OVCAR-5)	GI50 (OVCAR-4)	GI50 (SW-620)	GI50 (MOLT-4)	GI50 (IGROV-1)	GI50 (HCT-116)	GI50 (EKVX)	GI50 (UACC-257)	GI50 (CAKI-1)	GI50 (KM12)
CC(C)=C[C@@H]1C[C@H](C)[C@H]2CC[C@H](C)[C@H]3C(=O)C(O)=C(C)C(=O)[C@]123	> 100 µM (inactive)	> 100 µM (inactive)	> 100 µM (inactive)	> 100 µM (inactive)	> 100 µM (inactive)	> 100 µM (inactive)	42.7 µM (inactive)	> 100 µM (inactive)	> 100 µM (inactive)	> 100 µM (inactive)	> 100 µM (inactive)	90.8 µM (inactive)	> 100 µM (inactive)	> 100 µM (inactive)	> 100 µM (inactive)	88.5 µM (inactive)	> 100 µM (inactive)	> 100 µM (inactive)	> 100 µM (inactive)	> 100 µM (inactive)
COc1ccc(-c2oc3cc(-c4cc5oc(-c6ccc(OC)cc6)c(-c6ccc(OC)cc6)c5cc4OC)c(OC)cc3c2-c2ccc(OC)cc2)cc1	> 100 µM (inactive)	> 100 µM (inactive)	> 100 µM (inactive)	> 100 µM (inactive)	> 100 µM (inactive)	> 100 µM (inactive)	> 100 µM (inactive)	> 100 µM (inactive)	> 100 µM (inactive)	> 100 µM (inactive)	> 100 µM (inactive)	> 100 µM (inactive)	> 100 µM (inactive)	> 100 µM (inactive)	> 100 µM (inactive)	> 100 µM (inactive)	> 100 µM (inactive)	> 100 µM (inactive)	> 100 µM (inactive)	> 100 µM (inactive)
C=C1N(C)c2ccc(S(=O)(=O)c3ccc4c(c3)C(C)(C)C(=C)N4C)cc2C1(C)C	36.6 µM (inactive)	22.8 µM (inactive)	77.8 µM (inactive)	9.08 µM (inactive)	16.3 µM (inactive)	27.1 µM (inactive)	3.85 µM (inactive)	17.5 µM (inactive)	29.1 µM (inactive)	39.2 µM (inactive)	83.9 µM (inactive)	35.3 µM (inactive)	45 µM (inactive)	18 µM (inactive)	27.3 µM (inactive)	34.5 µM (inactive)	30.9 µM (inactive)	26.4 µM (inactive)	62.4 µM (inactive)	45.5 µM (inactive)
C#C[C@H](CCCC)OC(=O)N[C@H](C)c1ccccc1	63.7 µM (inactive)	75 µM (inactive)	41.9 µM (inactive)	24.5 µM (inactive)	21.7 µM (inactive)	49.3 µM (inactive)	57.5 µM (inactive)	21.7 µM (inactive)	80.9 µM (inactive)	> 100 µM (inactive)	48 µM (inactive)	42 µM (inactive)	68.2 µM (inactive)	31.3 µM (inactive)	75.3 µM (inactive)	24 µM (inactive)	50.6 µM (inactive)	24.8 µM (inactive)	52.6 µM (inactive)	51.3 µM (inactive)
CC(=O)n1nnc2ccc([N+](=O)[O-])cc21	> 100 µM (inactive)	> 100 µM (inactive)	> 100 µM (inactive)	> 100 µM (inactive)	> 100 µM (inactive)	> 100 µM (inactive)	> 100 µM (inactive)	> 100 µM (inactive)	> 100 µM (inactive)	> 100 µM (inactive)	> 100 µM (inactive)	> 100 µM (inactive)	> 100 µM (inactive)	> 100 µM (inactive)	> 100 µM (inactive)	> 100 µM (inactive)	> 100 µM (inactive)	> 100 µM (inactive)	> 100 µM (inactive)	> 100 µM (inactive)
CC(CO)(CO)N1C(=O)C2C3C=CC(C3)C2C1=O (stereo not given)	> 100 µM (inactive)	> 100 µM (inactive)	> 100 µM (inactive)	> 100 µM (inactive)	> 100 µM (inactive)	> 100 µM (inactive)	> 100 µM (inactive)	> 100 µM (inactive)	> 100 µM (inactive)	> 100 µM (inactive)	> 100 µM (inactive)	> 100 µM (inactive)	> 100 µM (inactive)	> 100 µM (inactive)	> 100 µM (inactive)	> 100 µM (inactive)	> 100 µM (inactive)	> 100 µM (inactive)	> 100 µM (inactive)	> 100 µM (inactive)
CC1=NN(c2ccccc2)C(=O)C12[C@H](c1ccccc1)C2(C#N)C#N (stereo not given in full)	7.26 µM (inactive)	12.9 µM (inactive)	8.36 µM (inactive)	1.91 µM (inactive)	2.29 µM (inactive)	2.84 µM (inactive)	2.64 µM (inactive)	4.48 µM (inactive)	3.44 µM (inactive)	15.8 µM (inactive)	11.5 µM (inactive)	5.46 µM (inactive)	1.87 µM (inactive)	0.679 µM (active)	14.2 µM (inactive)	3.21 µM (inactive)	18.3 µM (inactive)	5.96 µM (inactive)	6.41 µM (inactive)	9.64 µM (inactive)
COC(=O)/C=c1\s/c(=C\C(=O)OC)c2ccccc12	> 100 µM (inactive)	> 100 µM (inactive)	> 100 µM (inactive)	> 100 µM (inactive)	> 100 µM (inactive)	> 100 µM (inactive)	> 100 µM (inactive)	> 100 µM (inactive)	> 100 µM (inactive)	> 100 µM (inactive)	> 100 µM (inactive)	> 100 µM (inactive)	> 100 µM (inactive)	> 100 µM (inactive)	> 100 µM (inactive)	> 100 µM (inactive)	> 100 µM (inactive)	> 100 µM (inactive)	> 100 µM (inactive)	11.7 µM (inactive)
O=C(CC/C(C/C(=N/O)c1ccc(F)cc1)=N/O)N(Cc1ccccc1)Cc1ccccc1	> 100 µM (inactive)	> 100 µM (inactive)	> 100 µM (inactive)	> 100 µM (inactive)	73.8 µM (inactive)	> 100 µM (inactive)	> 100 µM (inactive)	> 100 µM (inactive)	> 100 µM (inactive)	> 100 µM (inactive)	> 100 µM (inactive)	> 100 µM (inactive)	> 100 µM (inactive)	> 100 µM (inactive)	> 100 µM (inactive)	> 100 µM (inactive)	58.6 µM (inactive)	> 100 µM (inactive)	> 100 µM (inactive)	> 100 µM (inactive)
CN(C)CCC1(C2=CCCC2)CC/C(=C\c2ccccc2)C1=O (stereo not given)	21.5 µM (inactive)	19.1 µM (inactive)	15.3 µM (inactive)	14.6 µM (inactive)	14.5 µM (inactive)	16.1 µM (inactive)	17.7 µM (inactive)	14.7 µM (inactive)	13.6 µM (inactive)	14.7 µM (inactive)	19.6 µM (inactive)	16.6 µM (inactive)	16.9 µM (inactive)	14.3 µM (inactive)	15.5 µM (inactive)	19.5 µM (inactive)	11.8 µM (inactive)	15.2 µM (inactive)	12.5 µM (inactive)	15.5 µM (inactive)
C=C(C)COc1ccc2c(c1)CCC1C2CCC2(C)C(=O)/C(=N/O)CC12 (stereo not given)	3.81 µM (inactive)	4.37 µM (inactive)	3.12 µM (inactive)	2.39 µM (inactive)	3.21 µM (inactive)	6.92 µM (inactive)	2.3 µM (inactive)	8.11 µM (inactive)	14.9 µM (inactive)	11.8 µM (inactive)	3.93 µM (inactive)	2.39 µM (inactive)	1.99 µM (inactive)	1.76 µM (inactive)	1.61 µM (inactive)	1.52 µM (inactive)	2.59 µM (inactive)	11.3 µM (inactive)	1.21 µM (inactive)	2.19 µM (inactive)
COc1cc(C=O)cc(/C=N/c2ccc(S(N)(=O)=O)cc2)c1O	4.13 µM (inactive)	3.64 µM (inactive)	3.82 µM (inactive)	7.13 µM (inactive)	16.6 µM (inactive)	6.21 µM (inactive)	2.86 µM (inactive)	4.91 µM (inactive)	23.8 µM (inactive)	11.3 µM (inactive)	26.7 µM (inactive)	> 100 µM (inactive)	24.4 µM (inactive)	18 µM (inactive)	> 100 µM (inactive)	18.2 µM (inactive)	56.2 µM (inactive)	6.92 µM (inactive)	7.38 µM (inactive)	27.7 µM (inactive)
CC(SC1=CC(=O)c2c(O)ccc(O)c2C1=O)C(=O)O (stereo not given)	48 µM (inactive)	> 100 µM (inactive)	26.7 µM (inactive)	> 52.8 µM (inactive)	22.5 µM (inactive)	23.5 µM (inactive)	> 58.5 µM (inactive)	> 61.5 µM (inactive)	17.5 µM (inactive)	> 100 µM (inactive)	> 100 µM (inactive)	17 µM (inactive)	> 40.8 µM (inactive)	7.48 µM (inactive)	> 44.9 µM (inactive)	31.2 µM (inactive)	> 100 µM (inactive)	35.5 µM (inactive)	27.4 µM (inactive)	> 100 µM (inactive)
COc1ccc(/C=c2/s/c(=C(\C#N)c3nc4ccccc4[nH]3)n(-c3ccccc3)c2=O)cc1	31.7 µM (inactive)	15.3 µM (inactive)	> 82.4 µM (inactive)	> 100 µM (inactive)	36.2 µM (inactive)	14.6 µM (inactive)	12.6 µM (inactive)	> 92.7 µM (inactive)	> 28.3 µM (inactive)	47.1 µM (inactive)	> 100 µM (inactive)	6.92 µM (inactive)	25.2 µM (inactive)	53.6 µM (inactive)	> 54.5 µM (inactive)	24.7 µM (inactive)	> 69.3 µM (inactive)	> 100 µM (inactive)	> 69.3 µM (inactive)	56.6 µM (inactive)
